# Laboratory results taken from patent US20260200849A1, “CATIONIC LIPIDS AND PREPARATION METHOD THEREOF” (RiboX Therapeutics HK Limited, priority 2024, published 2026).
# Where “and” joins values, the source holds several entries; their conditions need not be identical. Equal entries are not always repeated.
# Legend:
# [1] = LNP size and polydispersity index (PDI) by dynamic light scattering (Zetasizer); type: physicochemical; settings: for Size (nm): RNA No. 331
# Experimental: (§1) The LNP size and polydispersity index (PDI), determined by dynamic light scattering (DLS), and zeta potential were measured by a Zetasizer machine (Malvern). RNA concentration and encapsulation efficacy (EE %) were analyzed by the Quant-IT Ribogreen kit by calculating the percentage encapsulation at 100%—(RNA-LNPs/RNA-LNPs with Triton X-100).
# [2] = RNA encapsulation efficacy (EE %) by Quant-IT Ribogreen kit; type: physicochemical; settings: LNP
# Experimental: as §1
# Hep G2 cells [3] = assay: In vitro expression: luciferase activity in Hep G2 cells transfected with RNA-LNPs; type: cell-based; settings: 100 ng/mL RNA-LNPs, 72 hours post transfection
# Experimental: 2E5 Hep G2 cells were transfected with 100 ng/mL of RNA-LNPs encoding for firefly-luciferase. At 72 hours post transfection, the cells were washed and lysed. The luciferase expression (2-well repeat) was determined in the cell lysates with the luciferase assay reagent kit (Promega), according to the kit protocol, luciferase activity was measured by a luminometer.
# Hep G2 cells [4] = assay: In vitro toxicity: Hep G2 cell viability by CellTiter-Glo; type: cell-based; settings: 72 hours post transfection, cell only = 100%
# Experimental: 2E5 Hep G2 cells were transfected with 1 μg/mL RNA-LNPs. At 72 hours post transfection, cell viability (2-well repeat) was determined with the CellTiter-Glo® reagent kit, according to the kit protocol, measured by a luminometer. Cell only as control (100%).
# The cell viability was calculated according to the following formula: […]
# Balb/c mice = assay: In vivo expression by IV, 0.05 mg/kg luciferase RNA-LNPs, IVIS luminescence; settings: female Balb/c mice, 0.05 mg*kg−1 intravenous; for Whole body at 24 h (p/s) (Mean) / Whole body at 72 h (p/s) (Mean): Formulation No. 010, RNA No. 331; for Whole body at 24 h (p/s) (Mean): 24 hours post injection; for Whole body at 72 h (p/s) (Mean): 72 hours post injection
# Outline: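 Female Balb/c mice (7-8 weeks, N=3) received 0.05 mg*kg−1 firefly-luciferase RNA-LNPs IV. Luciferin (15 mg/ml) was given IP at 24 and 72 h post-dose for IVIS whole-body luminescence. A second run imaged whole body, liver and spleen at 24 h only.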
# C57BL/6J mice [5] = assay: In vivo expression by ID, whole-body/injection site skin/lymph node luminescence; settings: intradermal 0.15 mg/kg, 72 h post injection, female C57BL/6J mice N=3, Formulation 001, RNA 331
# Experimental: 7-8 week old, female C57BL/6J mice (N=3) were injected with 0.15 mg*kg−1 of RNA-LNPs encoding for firefly-luciferase by intradermal injection. At 72-hours post injection, animals were intraperitoneally injected with 15 mg/mi of Luciferin substrate and whole-body/injection site skin/lymph node luminescence were determined by a bioluminescent in vivo imaging system (IVIS).
# injection site skin = assay: In vivo tolerability after intradermal injection: H&E staining of injection site skin; parameters: species or system C57BL/6J mice; key to Infiltration, mononuclear cells, dermis/subcutaneous, focal, Grade / Edema, subcutaneous, focal, Grade / Erosion, focal, Grade / Skin, Grade: 1==minimal; 2=mild; 3=moderate; 4=marked; 5=severe; N=Normal; NA=Not applicable; —=No data; settings: intradermal 0.15 mg/kg, 72 h, Formulation 001, RNA 331; for Total score: sum of lesion grades of the group (N=3)
# Experimental: 7-8 week old, female C57BL/6J mice (N=3) were injected with 0.15 mg*kg−1 of RNA-LNIPs encoding for firefly-luciferase by intradermal injection. At 72-hours post injection, injection site skin from each animal was collected in 10% formalin, for H&E staining. PBS group (N=2) as control. (Note: 1==minimal, 2=mild, 3=moderate, 4=marked, 5=severe; N=Normal; NA=Not applicable; —=No data)
# MCP-1 = assay: In vivo tolerability by IM: serum MCP-1 by Luminex; settings: IM 1.0 mg/kg, male C57BL/6J mice N=3, Formulation 001, RNA 331
# Experimental: (§2) 6-8 week old, male C57BL/6J mice (N=3) were injected with 1.0 mg*kg−1 of RNA-LNPs encoding for firefly-luciferase by intramuscular injection. At 2- and 24-hours post injection, about 40 μL blood was harvested and immediately added to the procoagulant containing tube. Stand for 30 min at room temperature and then centrifuged at 2500 g×10 min to obtain serum. About 15 μL serum samples were aliquoted for cytokine (MCP-1 and IL-6) detection by Luminex (ProcartaPlex Mouse 2-plex, Thermo). PBS group as negative control.
# IL-6 = assay: In vivo tolerability by IM: serum IL-6 by Luminex; settings: IM 1.0 mg/kg, male C57BL/6J mice N=3, Formulation 001, RNA 331
# Experimental: as §2
# C57BL/6J mice [6] = assay: In vivo expression by IM, luciferase RNA-LNPs, whole-body/injection site muscle/organ luminescence; settings: IM 1.0 mg/kg, 24 h post injection, male C57BL/6J mice N=3, Formulation 001, RNA 331
# Experimental: 6-8 week old, male C57BL/6J mice (N=3) were injected with 1.0 mg*kg−1 of RNA-LNPs encoding for firefly-luciferase by intramuscular injection. At 24-hours post injection, animals were intraperitoneally injected with 15 mg/ml of Luciferin substrate and whole-body/injection site muscle/liver/spleen/kidney/heart/lung luminescence were determined by a bioluminescent in vivo imaging system (IVIS).
# [7] = Formulation No. 001, RNA No. 019 (hEPO)
# [8] = Formulation No. 001, RNA No. 331
# [9] = Formulation No. 001, RNA No. 331, 24-hours post injection
# [10] = Formulation No. 010 (Ionizable lipid:DSPC:cholesterol:DSPE-PEG2000 = 38:30:30:2, N/P 6)
# [11] = Formulation No. 010, RNA No. 331
# [12] = Formulation No. 010, RNA No. 331 (firefly-luciferase)
# [13] = 1 μg/mL RNA-LNPs, Formulation 001, RNA 331
# [14] = Formulation No. 010, RNA No. 331, 1 μg/mL RNA-LNPs
"PDI [1, 7]","Size [1, 7]","PDI [1, 8]","EE (%) [2, 7]","EE (%) [2, 8]","Size [1, 8]","Size (nm) [1, 10]","PDI [1, 11]","EE (%) [2, 11]",Compound,"In vitro Expression (Mean) (Hep G2 cells [3]; Formulation 001, RNA 331)",In vitro Expression (Mean) (Hep G2 cells [3]; [12]),In vitro cell viability (%) (Mean) (Hep G2 cells [4]; [13]),In vitro cell viability (%) (Mean) (Hep G2 cells [4]; [14]),Whole body at 24 h (p/s) (Mean) (Balb/c mice),Whole body at 72 h (p/s) (Mean) (Balb/c mice),Injection site Skin (p/s) (C57BL/6J mice [5]),Lymph node (p/s) (C57BL/6J mice [5]),Whole body (p/s) (C57BL/6J mice [5]),"Edema, subcutaneous, focal, Grade (injection site skin; per animal)","Erosion, focal, Grade (injection site skin; per animal)",further results
0.05,59.39 nm,0.01,97.48%,93.81%,,,,,CCCCCCCCC(CCCCCC)C(=O)OCCCCCCCCOC(=O)NC(COC(=O)NCCN1CCCCC1)C(=O)OCCCCCCCCOC(=O)C(CCCCCC)CCCCCCCC (stereo not drawn) [Lipid 888],,,,,,,,,,,,"Size (nm) ([1]; Formulation No. 001 (Ionizable lipid:DSPC:cholesterol:DMG-PEG2000 = 50:10:38.5:1.5, N/P 6)): 62.46 nm; In vitro Expression (Mean) (Hep G2 cells [3]; Formulation No. 001, RNA No. 331 (firefly-luciferase)): 4.84E+05; In vitro cell viability (%) (Mean) (Hep G2 cells [4]; Formulation No. 001, RNA No. 331, 1 μg/mL RNA-LNPs): 89.73%; Liver (p/s) (Mean) (Balb/c mice; [9]): 2.18E+08 p/s; Spleen (p/s) (Mean) (Balb/c mice; [9]): 7.61E+07 p/s; Whole body (p/s) (Mean) (Balb/c mice; [9]): 1.35E+09 p/s"
0.06,68.99 nm,0.06,96.00%,94.45%,62.57 nm,55.29 nm,0.07,96.73%,CCCCCCCC/C=C\CCCCCCCC(=O)NC(COC(=O)NCCN1CCCCC1)C(=O)OCCCCCCCCOC(=O)C(CCCCCC)CCCCCCCC (stereo not drawn) [Lipid 700],7.16E+05,3.61E+05,78.82%,99.10%,3.40E+08 p/s,1.34E+08 p/s,1.75E+07 p/s,1.57E+06 p/s,8.00E+07 p/s,1 (2×) and 2,—,"Infiltration, mononuclear cells, dermis/subcutaneous, focal, Grade (injection site skin; per animal): 1; Total score (injection site skin): 7; MCP-1 at 2 h (MCP-1): 281 pg/mL; MCP-1 at 24 h (MCP-1): 3270 pg/mL; IL-6 at 2 h (IL-6): 15 pg/mL; IL-6 at 24 h (IL-6): 143 pg/mL; Heart (p/s) (C57BL/6J mice [6]): 1.79E+05 p/s; Injection site muscle (p/s) (C57BL/6J mice [6]): 3.07E+08 p/s; Kidney (p/s) (C57BL/6J mice [6]): 9.03E+05 p/s; Liver (p/s) (C57BL/6J mice [6]): 8.73E+07 p/s; Lung (p/s) (C57BL/6J mice [6]): 3.11E+05 p/s; Spleen (p/s) (C57BL/6J mice [6]): 1.21E+07 p/s; Whole body (p/s) (C57BL/6J mice [6]): 5.65E+08 p/s"
0.04,64.53 nm,0.04,94.25%,94.58%,61.34 nm,57.35 nm,0.13,96.68%,CCCCC/C=C\C/C=C\CCCCCCCC(=O)NC(COC(=O)NCCN1CCCCC1)C(=O)OCCCCCCCC(=O)OC(CCCCCCCC)CCCCCCCC (stereo not drawn) [Lipid 549],7.02E+05,5.75E+05,79.09%,88.89%,2.75E+08 p/s,7.85E+07 p/s,3.41E+06 p/s,3.17E+06 p/s,4.38E+07 p/s,— and 1 (2×),—,"Infiltration, mononuclear cells, dermis/subcutaneous, focal, Grade (injection site skin; per animal): — and 1 (2×); Skin, Grade (injection site skin; per animal): N; Total score (injection site skin): 4; MCP-1 at 2 h (MCP-1): 299 pg/mL; MCP-1 at 24 h (MCP-1): 3980 pg/mL; IL-6 at 2 h (IL-6): 27 pg/mL; IL-6 at 24 h (IL-6): 146 pg/mL; Heart (p/s) (C57BL/6J mice [6]): 8.09E+05 p/s; Injection site muscle (p/s) (C57BL/6J mice [6]): 2.75E+08 p/s; Kidney (p/s) (C57BL/6J mice [6]): 1.23E+07 p/s; Liver (p/s) (C57BL/6J mice [6]): 1.76E+08 p/s; Lung (p/s) (C57BL/6J mice [6]): 1.24E+06 p/s; Spleen (p/s) (C57BL/6J mice [6]): 6.26E+07 p/s; Whole body (p/s) (C57BL/6J mice [6]): 1.10E+09 p/s"
